From PMC12251305 (Molecules, 2025) come the findings set out here.

Like-named read-outs stand apart in the source and are kept apart here. Some results are limits rather than exact numbers.

Series [1] concerns the target T1, hNPFF2-R (Homo sapiens, UniProt Q9Y5X5).
T1 construct: expressed in transfected cells; host or cells: CHO cells (membranes)
In words: Radioligand competition binding at NPFF2-R.

For series [2], the target named is T2, KOR (Homo sapiens, UniProt P41145). In words: biochemical. The series is classed as binding.
The target of series [3] is T2, KOR. The series is described as follows: [35S]GTPγS functional assay (agonist mode) at KOR. The class given is biochemical.
In series [4] the target is T3, MOR (Homo sapiens, UniProt P35372). The series is described as follows: Radioligand competition binding at MOR.
The subject of series [5] is C57BL/6J mice. In words: Antinociception assay (55 °C warm water tail withdrawal assay). The class given is in vivo, mouse. The following applies: 30 nmol i.c.v., 55 °C.
Series [6] deals with T3, MOR. In words: [35S]GTPγS functional assay (agonist mode) at MOR. The series is classed as biochemical.
The target in series [7] is T4, DOR (Homo sapiens, UniProt P41143). In words: Radioligand competition binding at DOR.
In series [8] the target is T4, DOR. In words: [35S]GTPγS functional assay (agonist mode) at DOR. The series is classed as biochemical.
Series [9] concerns C57BL/6J mice. In words: Anti-hyperalgesia assay (48 °C warm water tail withdrawal assay, NPFF-induced hyperalgesia). The following applies: 30 nmol i.c.v. two hours before NPFF 30 nmol i.c.v. The series is classed as in vivo, mouse.
The target in series [10] is T5, hNPFF1-R (Homo sapiens, UniProt Q9GZQ6).
T5 construct: expressed in transfected cells; host or cells: CHO cells
The series is described as follows: Radioligand competition binding at NPFF1-R.

Series [11] deals with C57BL/6J mice. The series is described as follows: Respiration testing (CLAMS). The class given is in vivo, mouse. As to conditions: 100 nmol i.c.v., 90 min.
Series [12] relates to C57BL/6J mice. In words: Locomotor testing (CLAMS). The class given is in vivo, mouse. The following applies: 100 nmol i.c.v., 90 min.
Series [13] has as its system C57BL/6J mice. In words: Excreta assay (intestinal transit). As to conditions: 90 min.
Series [14] concerns C57BL/6J mice. In words: Acute antinociceptive tolerance assay (55 °C warm water tail withdrawal). The series is classed as in vivo, mouse. As to conditions: i.c.v.
The mark [15] stands for this setting: [3H]EYF, transfected CHO cell membranes, read-out: Receptor Binding, Ki ± SEM NPFF2-R.
[16] abbreviates: GTPγS Kappa Agonist Functional Assay EC50 (Figure S2 curve fit), Figure S2, axis Log(M), U69,593 run beside each compound.
The mark [17] stands for this setting: [35S]GTPγS KOR EC50 ± SEM, agonist mode, standard U-69,593.
Where [18] appears, read: GTPγS Mu Agonist Functional Assay EC50 (Figure S2 curve fit).
Setting [19] is: read-out: Receptor Binding, Ki ± SEM DOR.
Setting [20] is: [35S]GTPγS DOR EC50 ± SEM, agonist mode, standard DPDPE.
The mark [21] stands for this setting: read-out: Receptor Binding, Ki ± SEM NPFF1-R.
[22] abbreviates: GTPγS Delta Agonist Functional Assay EC50 (Figure S2 curve fit), Figure S2, axis Log(M), DPDPE run beside each compound.

T3 sequence (P35372 whole entry): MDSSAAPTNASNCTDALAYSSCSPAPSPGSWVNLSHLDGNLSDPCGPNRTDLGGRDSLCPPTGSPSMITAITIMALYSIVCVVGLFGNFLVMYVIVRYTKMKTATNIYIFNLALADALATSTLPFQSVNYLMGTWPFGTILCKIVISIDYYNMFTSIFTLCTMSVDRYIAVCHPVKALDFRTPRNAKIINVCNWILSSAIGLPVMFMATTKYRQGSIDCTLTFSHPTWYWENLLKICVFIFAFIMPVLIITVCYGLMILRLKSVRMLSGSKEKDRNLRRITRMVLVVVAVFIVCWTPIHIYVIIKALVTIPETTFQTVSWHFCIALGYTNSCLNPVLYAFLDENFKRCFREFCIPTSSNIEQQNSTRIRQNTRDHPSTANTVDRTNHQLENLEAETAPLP
T2 sequence (P41145 whole entry): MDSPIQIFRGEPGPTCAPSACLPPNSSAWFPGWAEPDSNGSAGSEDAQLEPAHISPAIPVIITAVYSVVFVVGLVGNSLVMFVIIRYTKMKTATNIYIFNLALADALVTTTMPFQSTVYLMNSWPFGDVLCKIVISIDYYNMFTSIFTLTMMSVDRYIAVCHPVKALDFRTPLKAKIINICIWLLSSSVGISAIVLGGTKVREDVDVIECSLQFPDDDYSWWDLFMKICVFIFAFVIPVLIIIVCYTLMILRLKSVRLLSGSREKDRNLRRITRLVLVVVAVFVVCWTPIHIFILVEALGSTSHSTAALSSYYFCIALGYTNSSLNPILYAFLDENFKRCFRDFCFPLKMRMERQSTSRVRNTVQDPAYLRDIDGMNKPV
T5 sequence (Q9GZQ6 whole entry): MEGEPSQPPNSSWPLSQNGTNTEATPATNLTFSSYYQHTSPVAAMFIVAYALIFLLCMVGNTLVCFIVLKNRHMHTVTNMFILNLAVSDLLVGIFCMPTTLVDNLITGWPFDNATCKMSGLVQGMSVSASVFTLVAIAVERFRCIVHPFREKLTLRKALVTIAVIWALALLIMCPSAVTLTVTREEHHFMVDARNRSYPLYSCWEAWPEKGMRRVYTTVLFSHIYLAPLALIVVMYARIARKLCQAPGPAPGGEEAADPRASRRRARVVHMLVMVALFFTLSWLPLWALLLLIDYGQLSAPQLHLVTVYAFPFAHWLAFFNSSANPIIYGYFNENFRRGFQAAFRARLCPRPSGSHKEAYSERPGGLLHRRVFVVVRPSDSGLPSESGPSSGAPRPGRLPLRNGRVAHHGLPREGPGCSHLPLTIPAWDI
T4 sequence (P41143 whole entry): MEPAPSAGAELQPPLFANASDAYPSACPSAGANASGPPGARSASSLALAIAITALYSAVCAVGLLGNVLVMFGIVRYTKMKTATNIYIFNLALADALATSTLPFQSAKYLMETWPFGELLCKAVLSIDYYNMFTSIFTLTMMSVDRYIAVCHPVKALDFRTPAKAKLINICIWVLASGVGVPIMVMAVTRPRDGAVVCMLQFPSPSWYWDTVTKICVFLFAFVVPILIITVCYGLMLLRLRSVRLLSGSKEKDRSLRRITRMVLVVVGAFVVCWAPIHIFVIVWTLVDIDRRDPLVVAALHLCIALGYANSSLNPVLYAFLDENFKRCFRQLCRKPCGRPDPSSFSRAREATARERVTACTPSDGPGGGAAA
T1 sequence (Q9Y5X5 whole entry): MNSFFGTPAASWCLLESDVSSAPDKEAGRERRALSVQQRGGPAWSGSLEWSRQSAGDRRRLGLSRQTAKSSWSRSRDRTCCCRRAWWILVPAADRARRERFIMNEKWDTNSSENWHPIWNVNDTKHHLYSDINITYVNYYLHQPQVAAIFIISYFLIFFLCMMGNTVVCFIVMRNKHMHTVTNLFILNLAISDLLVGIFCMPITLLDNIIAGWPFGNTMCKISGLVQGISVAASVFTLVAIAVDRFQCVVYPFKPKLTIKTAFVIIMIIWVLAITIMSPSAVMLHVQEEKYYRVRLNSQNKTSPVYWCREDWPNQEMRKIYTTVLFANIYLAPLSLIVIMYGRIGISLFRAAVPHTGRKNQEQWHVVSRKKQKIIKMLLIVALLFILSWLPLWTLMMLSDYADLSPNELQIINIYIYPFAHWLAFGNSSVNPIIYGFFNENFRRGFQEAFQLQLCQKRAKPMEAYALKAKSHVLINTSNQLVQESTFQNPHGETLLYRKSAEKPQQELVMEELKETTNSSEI

`N=C(N)Nc1cccc(C(=C2CCN(Cc3ccccc3)CC2)c2cccc(O)c2)c1` [Compound 13a, 1-(3-((1-Benzylpiperidin-4-ylidene)(3-hydroxyphenyl)methyl)phenyl)guanidine]: the Ki in series [1] (setting [15]) was determined as 7080 ± 1260 nM; in series [2], 2.82 ± 0.39 nM; in series [4] it was 5.06 ± 0.21 nM; in series [7] (setting [19]) it was 0.481 ± 0.192 nM; in series [10] (setting [21]), 2180 ± 280 nM. Moreover, the EC50 in series [3] (setting [16]) is 4.18e-08 M; in series [3] (setting [17]), 4.18e-08 ± 4.9e-09 M; in series [6] (setting [18]), 28.3 nM; in series [6] ([35S]GTPγS MOR EC50 ± SEM), 28.3 ± 2.5 nM; in series [8] (setting [20]) it was 2.41e-08 ± 2.5e-09 M. The “antinociceptive activity over time (screening)” value in series [5] was “did not show statistically significant antinociceptive activity”. Further, the “prevention of NPFF-induced hyperalgesia (screening)” value (shortened to “prevention”) in series [9] is given as “more moderate, yet still statistically significant, effect”.

On to `N=C(N)Nc1ccc(C(=C2CCN(Cc3ccccc3)CC2)c2cccc(O)c2)cc1` [Compound 13b, 1-(4-((1-Benzylpiperidin-4-ylidene)(3-hydroxyphenyl)methyl)phenyl)guanidine], for which the Ki in [1] (setting [15]) stood at 6020 ± 1150 nM; in series [2], 30.6 ± 1.1 nM; in series [4], 56.2 ± 7.5 nM; in [7] (setting [19]), 1.67 ± 0.61 nM; in series [10] (setting [21]) it was 605 ± 136 nM. Further, the EC50 in series [3] (setting [16]) is 2.68e-07 M; in [3] (setting [17]) it was 2.68e-07 ± 3.19e-08 M; in series [6] ([35S]GTPγS MOR EC50 ± SEM) it was 1440 ± 226 nM; in [8] (setting [22]), 9.61e-09 M; in series [8] (setting [20]), 9.62e-09 ± 1.27e-09 M. Besides, the “antinociceptive activity over time (screening)” value in series [5] is on record as “lacked any marked analgesic activity”. Besides, the “prevention” value in [9] is “greater anti-NPFF activity”.

Regarding `N=C(N)Nc1cccc(C(=C2CCN(Cc3ccccc3)CC2)c2ccc(O)cc2)c1` [Compound 14a, 1-(3-((1-Benzylpiperidin-4-ylidene)(4-hydroxyphenyl)methyl)phenyl)guanidine], the inhibitory constant (Ki) is more than 10000 nM in series [1] (setting [15]); 32.3 ± 3.5 nM in [2]; 33.5 ± 4.7 nM in [4]; 2.33 ± 0.6 nM in series [7] (setting [19]); 1720 ± 308 nM in series [10] (setting [21]). The “reduction of affinity at KOR relative to 13a” value in series [2] is recorded as 11 fold. Moreover, the EC50 worked out at 4.82e-07 ± 8.16e-08 M in series [3] (setting [17]); 420 nM in series [6] (setting [18]); 420 ± 54.5 nM in series [6] ([35S]GTPγS MOR EC50 ± SEM); 4.55e-07 M in series [8] (setting [22]); 4.55e-07 ± 6.17e-08 M in series [8] (setting [20]). For the same molecule, the “antinociceptive activity over time (screening)” value in series [5] is reported as “did not produce statistically significant antinociception”. In series [7] (hydroxyl shifted from 3′- to 4′- position), the “reduction of affinity at DOR relative to 13a” value worked out at 4 fold. Also, the “prevention” value in series [9] was “greater anti-NPFF activity”.

On to `N=C(N)Nc1ccc(C(=C2CCN(Cc3ccccc3)CC2)c2ccc(O)cc2)cc1` [Compound 14b, 1-(4-((1-Benzylpiperidin-4-ylidene)(4-hydroxyphenyl)methyl)phenyl)guanidine], for which the Ki in series [1] was 4820 ± 1010 nM; in series [2], 56.6 ± 3.8 nM; in series [4] (read-out: Receptor Binding, Ki ± SEM MOR) it was 313 ± 11 nM; in series [7], 6.46 ± 1.11 nM; in series [10], 1980 ± 288 nM. Moreover, the EC50 in [3] (setting [16]) is 1.36e-07 M; in series [3] (setting [17]), 1.36e-07 ± 2.37e-08 M; in [6], 18600 nM; in series [8] (Figure S2, axis Log(M), DPDPE run beside each compound, read-out: GTPγS Delta Agonist Functional Assay EC50 (Figure S2 curve fit)) it was 2.27e-07 M; in series [8] (agonist mode, standard DPDPE, read-out: [35S]GTPγS DOR EC50 ± SEM), 2.27e-07 ± 1.25e-08 M. For the same molecule, the “antinociceptive activity over time (screening)” value in series [5] was “displayed antinociception in vivo second only to 22b”. For the same molecule, the “prevention” value in series [9] is “more moderate, yet still statistically significant, effect”.

As to `N=C(N)Nc1cccc(C(=C2CCN(Cc3ccccc3)CC2)c2ccccc2)c1` [Compound 22a, 1-(3-((1-Benzylpiperidin-4-ylidene)(phenyl)methyl)phenyl)guanidine], the Ki in series [1] (setting [15]) worked out at 2570 ± 423 nM; in series [2] it was 91 ± 9.9 nM; in [4] it was 6.45 ± 1.23 nM; in series [7] (setting [19]), 3.37 ± 0.59 nM; in [10] (setting [21]), 1400 ± 61 nM. Also, the EC50 came out at 2.55e-07 ± 5.77e-08 M in series [3] (setting [17]), 102 ± 21.3 nM in series [6] ([35S]GTPγS MOR EC50 ± SEM), 2.56e-07 M in [8] (setting [22]) and 2.56e-07 ± 2.49e-08 M in series [8] (setting [20]). Besides, the “antinociceptive activity over time (screening)” value in series [5] was “displayed antinociception in vivo second only to 22b”. The “prevention” value in [9] was “more moderate, yet still statistically significant, effect”.

`CC(C)C[C@H](NC(=O)[C@@H](N)Cc1ccccc1)C(=O)N[C@@H](Cc1ccccc1)C(=O)N[C@@H](CCC(N)=O)C(=O)N1CCC[C@H]1C(=O)N[C@@H](CCC(N)=O)C(=O)N[C@@H](CCCN=C(N)N)C(=O)N[C@@H](Cc1ccccc1)C(N)=O` [NPFF, neuropeptide FF, reference compound]: the inhibitory constant (Ki) in series [2], in series [4] and in series [7] was more than 10000 nM throughout.

With `CN1CC[C@]23c4c5ccc(O)c4O[C@H]2[C@@H](O)C=C[C@H]3[C@H]1C5` [morphine, reference compound], the “effect on respiration rate” value in series [11] is on record as “significant respiratory depression”. Also, the “effect on ambulation (spontaneous locomotor activity)” value in series [12] was “increased ambulation”. The entries for the “number of excreted fecal boli” value in [13] (30 nmol i.c.v.) and in series [13] (100 nmol i.c.v.) were 1.8 ± 0.8 boli and 1.5 ± 0.6 boli, respectively. The “antinociception ED50 (95% CI), single administration” value in [14] (55 °C, baseline dose response) is 2.35 (1.13–5.03) nmol. Besides, the “antinociception ED50 (95% CI), second administration” value in series [14] (given 8 h after a first dose (morphine 3 nmol, 22b 8.7 nmol), 55 °C) was 22.5 (8.48–61.9) nmol. The “rightward shift of antinociceptive dose response (acute tolerance)” value in [14] (second administration 8 h after first) is reported as 9.6 fold.
